Data reported in patent US11447460B2, “Compounds and compositions for treating conditions associated with NLRP activity” (Novartis AG, priority 2016, dated 2022).
Read-outs that look alike come from different tables or passages of the source.

Test system: IL-1β production in PMA-differentiated THP-1 cells
Assay: IL-1β production in PMA-differentiated THP-1 cells stimulated with gramicidin (hTHP-1 assay, 2% bovine serum; Bioassays 1 and 2)
Assay type: cell-based, human
Settings: hTHP-1 assay containing 2% bovine serum, read-out: Average IC50 of compounds in hTHP-1 assay
Experimental: IL-1β Production in PMA-Differentiated THP-1 Cells Stimulated with Gramicidin.
Cell culture-THP-1 cells were purchased from the American Type Culture Collection and sub-cultured according to instructions from the supplier. Prior to experiments, cells were cultured in RPMI 1640 containing 10% heat inactivated FBS, penicillin (100 units/ml) and streptomycin (100 μg/ml), and maintained in log phase prior to experimental setup. Prior to the experiment THP-1 were treated with PMA (Phorbol 12-myristate 13-acetate) (10 μg/ml) for 24 hours. The day of the experiment the media was removed and attaching cells were treated with trypsin for 2 minutes, cells were then collected, washed with PBS (phosphate buffer saline), spin down, resuspended in 2% heat inactivated FBS with RPMI at a concentration of 1×10^6 cells/ml, and 100 ul was plated in a 96 well plate. Cells were incubated with compounds for 1 hours and then stimulated with Gramicidin (5 μM) (Enzo) for 2 hours. Cell free supernatant was collected and the production of IL-1β was evaluated by ELISA. Compounds were dissolved in dimethyl sulfoxide (DMSO) and added to the culture medium to achieve desired concentration (e.g. 100, 30, 10, 3, 1, 0.3 or 0.1 μM). A vehicle only control was run concurrently with each experiment. Final DMSO concentration was 1%.
THP-1 cells were purchased from the American Type Culture Collection and sub-cultured according to instructions from the supplier. Prior to experiments, cells were cultured in complete RPMI 1640 (containing 10% heat inactivated FBS, penicillin (100 units/ml) and streptomycin (100 μg/ml)), and maintained in log phase prior to experimental setup. Prior to the experiment THP-1 were treated with PMA (Phorbol 12-myristate 13-acetate) (20 ng/ml) for 16-18 hours. On the day of the experiment the media was removed and adherent cells were detached with trypsin for 5 minutes. Cells were then harvested, washed with complete RPMI 1640, spun down, resuspended in RPMI 1640 (containing 2% heat inactivated FBS, penicillin (100 units/ml) and streptomycin (100 μg/ml). The cells were plated in a 384-well plate at a density of 50,000 cells/well (final assay volume 50 μl). Compounds were dissolved in dimethyl sulfoxide (DMSO) and added to the culture medium to achieve desired concentration (e.g. 100, 33, 11, 3.7, 1.2, 0.41, 0.14, 0.046, 0.015, 0.0051, 0.0017 μM). Cells were incubated with compounds for 1 hour and then stimulated with gramicidin (5 μM) (Enzo) for 2 hours. Cell free supernatant was collected and the production of IL-10 was evaluated by HTRF (cisbio). A vehicle only control was run concurrently with each experiment. Final DMSO concentration was 0.38%.
Compounds tested with protocols 1 and 2 provided IC50 values that are within the variability of the assay.
Tables 12 and 13 show the biological activity of compounds in hTHP-1 assay containing 2% bovine serum: <1 μM=“++++”; ≥1 and <5 μM=“+++”; ≥5 and <15 μM=“++”; ≥15 and <60 μM=“+”.

[1] = Homo sapiens, THP-1, Table 13, by Final Target Number
[2] = Homo sapiens, THP-1, Table 12, by Example #

| SMILES | IC50 [2] | also measured |
| --- | --- | --- |
| CC(C)c1cc(F)cc(C(C)C)c1CC(=O)NS(=O)(=O)c1ncc(CN(C)C)s1 [Compound 213] | – | IC50 [1]: 5 to 15 µM |
| CC(C)c1cc(F)cc(C(C)C)c1CC(=O)NS(=O)(=O)c1ccc(CN(C)C)cc1 [Compound 214] | – | IC50 [1]: < 1 µM |
| CC(C)c1cc(F)cc(C(C)C)c1CC(=O)NS(=O)(=O)c1cccc(CN(C)C)c1 [Compound 215] | – | IC50 [1]: 5 to 15 µM |
| CC(C)(O)c1coc(S(=O)(=O)NC(=O)Cc2c3c(cc4c2CCC4)CCC3)c1 [Example 1, 2-(1,2,3,5,6,7-Hexahydros-indacen-4-yl)-N-(4-(2-hydroxypropan-2-yl)furan-2-ylsulfonyl)acetamide] | 5 to 15 µM | – |
| CC(C)c1cccc(C(C)C)c1CC(=O)NS(=O)(=O)c1ncc(C(C)(C)O)s1 [Example 2, 2-(2,6-Diisopropylphenyl)-N-(5-(2-hydroxypropan-2-yl)thiazol-2-ylsulfonyl)acetamide] | 1 to 5 µM | – |
| CC(C)(O)c1cnc(S(=O)(=O)NC(=O)Cc2c3c(cc4c2CCC4)CCC3)s1 [Example 3, 2-(1,2,3,5,6,7-Hexahydros-indacen-4-yl)-N-(5-(2-hydroxypropan-2-yl)thiazol-2-ylsulfonyl)acetamide] | 15 to 60 µM | – |
| CC(C)c1cc(F)cc(C(C)C)c1CC(=O)NS(=O)(=O)c1ncc(C(C)(C)CO)s1 [Example 4, 2-(4-Fluoro-2,6-diisopropylphenyl)-N-(5-(1-hydroxy-2-methylpropan-2-yl)thiazol-2-ylsulfonyl)acetamide] | 5 to 15 µM | – |
| CC(C)(O)c1cnc(S(=O)(=O)NC(=O)Cc2c3c(c(Cl)c4c2CCC4)CCC3)s1 [Example 5, 2-(8-Chloro-1,2,3,5,6,7-hexahydros-indacen-4-yl)-N-(5-(2-hydroxypropan-2-yl)thiazol-2-ylsulfonyl)acetamide] | 15 to 60 µM | – |
| CC(C)c1cc(C#N)cc(C(C)C)c1CC(=O)NS(=O)(=O)c1ncc(C(C)(C)O)s1 [Example 6, 2-(4-cyano-2,6-diisopropylphenyl)-N-(5-(2-hydroxypropan-2-yl)thiazol-2-ylsulfonyl)acetamide] | 1 to 5 µM | – |
| CC(C)(O)c1csc(S(=O)(=O)NC(=O)Cc2c3c(cc4c2CCC4)CCC3)c1 [Example 7, 2-(1,2,3,5,6,7-hexahydro-sindacen-4-yl)-N-(4-(2-hydroxypropan-2-yl)thiophen-2-ylsulfonyl)acetamide] | – | IC50 (Table 12, by Example #): 5 to 15 µM |
| CC(C)c1cccc(C(C)C)c1CC(=O)NS(=O)(=O)c1cc(C(C)(C)O)cs1 [Example 8, 2-(2,6-diisopropylphenyl)-N-(4-(2-hydroxypropan-2-yl)thiophen-2-ylsulfonyl)acetamide] | < 1 µM | – |
| CC(C)c1cc(F)cc(C(C)C)c1CC(=O)NS(=O)(=O)c1cc(C(C)(C)O)cs1 [Example 9, 2-(4-fluoro-2,6-diisopropylphenyl)-N-(4-(2-hydroxypropan-2-yl)thiophen-2-ylsulfonyl)acetamide] | < 1 µM | – |
| CC(C)c1cc(C#N)cc(C(C)C)c1CC(=O)NS(=O)(=O)c1cc(C(C)(C)O)cs1 [Example 10, 2-(4-cyano-2,6-diisopropylphenyl)-N-(4-(2-hydroxypropan-2-yl)thiophen-2-ylsulfonyl)acetamide] | < 1 µM | – |
| CC(C)c1ccc(F)c(C(C)C)c1CC(=O)NS(=O)(=O)c1cc(C(C)(C)O)cs1 [Example 11, 2-(3-fluoro-2,6-diisopropylphenyl)-N-(4-(2-hydroxypropan-2-yl)thiophen-2-ylsulfonyl)acetamide] | < 1 µM | – |
| CC(C)c1c(F)c(Cl)c(F)c(C(C)C)c1CC(=O)NS(=O)(=O)c1cc(C(C)(C)O)cs1 [Example 12, 2-(4-chloro-3,5-difluoro-2,6-diisopropylphenyl)-N-(4-(2-hydroxypropan-2-yl)thiophen-2-ylsulfonyl)acetamide] | < 1 µM | – |

Now from value to compound, other results behind:

| IC50 [2] | SMILES | also measured |
| --- | --- | --- |
| 1 to 5 µM | CC(C)c1cc(F)cc(C(C)C)c1CC(=O)NS(=O)(=O)c1ccc(C(C)(C)O)s1 [Example 13, 2-(4-fluoro-2,6-diisopropylphenyl)-N-(5-(2-hydroxypropan-2-yl)thiophen-2-ylsulfonyl)acetamide] | – |
| 1 to 5 µM | CC(C)c1cccc(C(C)C)c1CC(=O)NS(=O)(=O)c1cc(C2(O)CC2)cs1 [Example 14, 2-(2,6-diisopropylphenyl)-N-(4-(1-hydroxycyclopropyl)thiophen-2-ylsulfonyl)acetamide] | – |
| 1 to 5 µM | CC(C)c1cc(F)cc(C(C)C)c1CC(=O)NS(=O)(=O)c1cc(C2(O)CC2)cs1 [Example 15, 2-(4-fluoro-2,6-diisopropylphenyl)-N-(4-(1-hydroxycyclopropyl)thiophen-2-ylsulfonyl)acetamide] | – |
| < 1 µM | CC(C)c1cc(C#N)cc(C(C)C)c1CC(=O)NS(=O)(=O)c1cc(C2(O)CC2)cs1 [Example 16, 2-(4-cyano-2,6-diisopropylphenyl)-N-(4-(1-hydroxycyclopropyl)thiophen-2-ylsulfonyl)acetamide] | – |
| 1 to 5 µM | Cc1sc(S(=O)(=O)NC(=O)Cc2c(C(C)C)cc(F)cc2C(C)C)cc1C(C)(C)O [Example 17, 2-(4-fluoro-2,6-diisopropylphenyl)-N-(4-(2-hydroxypropan-2-yl)-5-methylthiophen-2-ylsulfonyl)acetamide] | – |
| 1 to 5 µM | Cc1oc(S(=O)(=O)NC(=O)Cc2c(C(C)C)cc(F)cc2C(C)C)cc1C(C)(C)O [Example 18, 2-(4-fluoro-2,6-diisopropylphenyl)-N-(4-(2-hydroxypropan-2-yl)-5-methylfuran-2-ylsulfonyl)acetamide] | – |
| 1 to 5 µM | Cc1c(C(C)(C)O)csc1S(=O)(=O)NC(=O)Cc1c(C(C)C)cc(F)cc1C(C)C [Example 19, 2-(4-fluoro-2,6-diisopropylphenyl)-N-(4-(2-hydroxypropan-2-yl)-3-methylthiophen-2-ylsulfonyl)acetamide] | – |
| < 1 µM | CC(C)c1c(F)c(Cl)c(F)c(C(C)C)c1CC(=O)NS(=O)(=O)c1cc(C(C)(C)O)co1 [Example 20, 2-(4-chloro-3,5-difluoro-2,6-diisopropylphenyl)-N-(4-(2-hydroxypropan-2-yl)furan-2-ylsulfonyl)acetamide] | – |
| 1 to 5 µM | CC(C)c1cccc(C(C)C)c1CC(=O)NS(=O)(=O)c1ccc(C(C)(C)O)cc1 [Example 21, 2-(2,6-diisopropylphenyl)-N-(4-(2-hydroxypropan-2-yl)phenylsulfonyl)acetamide] | – |
| 15 to 60 µM | CC(C)c1cccc(C(C)C)c1CC(=O)NS(=O)(=O)c1cc(-c2ccncc2)cc(C(C)(C)O)c1 [Example 22, 2-(2,6-diisopropylphenyl)-N-(3-(2-hydroxypropan-2-yl)-5-(pyridin-4-yl)phenylsulfonyl)acetamide] | – |
| 1 to 5 µM | CC(C)c1cccc(C(C)C)c1CC(=O)NS(=O)(=O)c1cc(-c2ccccc2)cc(C(C)(C)O)c1 [Example 23, 2-(2,6-diisopropylphenyl)-N-(5-(2-hydroxypropan-2-yl)biphenyl-3-ylsulfonyl)acetamide] | – |
| 15 to 60 µM | CC(C)c1cccc(C(C)C)c1CC(=O)NS(=O)(=O)c1cc(C(C)(C)O)cc(C(C)(C)O)c1 [Example 24, N-(3,5-bis(2-hydroxypropan-2-yl)phenylsulfonyl)-2-(2,6-diisopropylphenyl)acetamide] | – |
| 1 to 5 µM | CC(C)c1cc(F)cc(C(C)C)c1CC(=O)NS(=O)(=O)c1cccc(C(C)(C)O)c1 [Example 25, 2-(4-fluoro-2,6-diisopropylphenyl)-N-(3-(2-hydroxypropan-2-yl)phenylsulfonyl)acetamide] | – |
